Assay results published in ChEMBL document CHEMBL1201862, “PubChem BioAssay data set” (2004).
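Five concentrations, 48 hours, 96-well plates. GI50 = concentration required for 50% inhibition of growth.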 Calls of active or inactive are those of the source. Rule as the data show it: active = GI50 up to about 1.1 µM and inactive = higher.

Experiments:
Assay in all cases: NCI tumour cell line growth inhibition, 48 h
[1] = system: 786-0
[2] = system: A498
[3] = system: A549
[4] = system: ACHN
[5] = system: BT-549
[6] = system: CAKI-1
[7] = system: CCRF-CEM
[8] = system: COLO 205
[9] = system: DU-145
[10] = system: EKVX
[11] = system: HCC 2998
[12] = system: HCT-116
[13] = system: HCT-15
[14] = system: HOP-62
[15] = system: HT-29
[16] = system: Hs-578T
[17] = system: IGROV-1
[18] = system: K562
[19] = system: KM12
[20] = system: LOX IMVI
[21] = system: M14
[22] = system: MCF7
[23] = system: MDA-MB-231
[24] = system: MDA-MB-435
[25] = system: MDA-N
[26] = system: MOLT-4
[27] = system: Malme-3M
[28] = system: NCI-H226
[29] = system: NCI-H460
[30] = system: NCI-H522
[31] = system: NCI/ADR-RES
[32] = system: OVCAR-3
[33] = system: OVCAR-4
[34] = system: OVCAR-5
[35] = system: OVCAR-8
[36] = system: PC-3
[37] = system: RPMI-8226
[38] = system: RXF 393
[39] = system: SF-268
[40] = system: SF-295
[41] = system: SK-MEL-28
[42] = system: SK-MEL-2
[43] = system: SK-MEL-5
[44] = system: SK-OV-3
[45] = system: SN12C
[46] = system: SNB-19
[47] = system: SNB-75
[48] = system: SR
[49] = system: SW-620
[50] = system: T47D
[51] = system: TK-10
[52] = system: U-251
[53] = system: UACC-257
[54] = system: UACC-62
[55] = system: UO-31
[56] = system: HOP-92
[57] = system: NCI-H23
[58] = system: SF-539

Cc1ccc2c(c1)C(=S)N1CSCC1c1nncn1-2 (stereo not given)
GI50 [1]: > 100 µM (inactive)
GI50 [2]: > 100 µM (inactive)
GI50 [3]: > 100 µM (inactive)
GI50 [4]: > 100 µM (inactive)
GI50 [5]: > 100 µM (inactive)
GI50 [6]: > 100 µM (inactive)
GI50 [7]: > 100 µM (inactive)
GI50 [8]: > 100 µM (inactive)
GI50 [9]: > 100 µM (inactive)
GI50 [10]: > 100 µM (inactive)
GI50 [11]: > 100 µM (inactive)
GI50 [12]: > 100 µM (inactive)
GI50 [13]: > 100 µM
GI50 [14]: > 100 µM (inactive)
GI50 [15]: > 100 µM (inactive)
GI50 [16]: > 100 µM (inactive)
GI50 [17]: > 100 µM (inactive)
GI50 [18]: > 100 µM (inactive)
GI50 [19]: > 100 µM (inactive)
GI50 [20]: > 100 µM (inactive)
GI50 [21]: > 100 µM (inactive)
GI50 [22]: > 100 µM (inactive)
GI50 [23]: > 100 µM (inactive)
GI50 [24]: > 100 µM (inactive)
GI50 [25]: > 100 µM (inactive)
GI50 [26]: > 100 µM (inactive)
GI50 [27]: > 100 µM (inactive)
GI50 [28]: > 100 µM (inactive)
GI50 [29]: > 100 µM (inactive)
GI50 [30]: > 100 µM (inactive)
GI50 [31]: > 100 µM (inactive)
GI50 [32]: > 100 µM (inactive)
GI50 [33]: > 100 µM (inactive)
GI50 [34]: > 100 µM (inactive)
GI50 [35]: > 100 µM (inactive)
GI50 [36]: > 100 µM (inactive)
GI50 [37]: > 100 µM (inactive)
GI50 [38]: > 100 µM (inactive)
GI50 [39]: > 100 µM (inactive)
GI50 [40]: > 100 µM (inactive)
GI50 [41]: > 100 µM (inactive)
GI50 [42]: > 100 µM (inactive)
GI50 [43]: > 100 µM (inactive)
GI50 [44]: > 100 µM (inactive)
GI50 [45]: > 100 µM (inactive)
GI50 [46]: > 100 µM (inactive)
GI50 [47]: > 100 µM (inactive)
GI50 [48]: > 100 µM (inactive)
GI50 [49]: > 100 µM (inactive)
GI50 [50]: > 100 µM (inactive)
GI50 [51]: > 100 µM (inactive)
GI50 [52]: > 100 µM (inactive)
GI50 [53]: > 100 µM (inactive)
GI50 [54]: > 100 µM (inactive)
GI50 [55]: > 100 µM (inactive)

CC(C)CC1NC(=O)C(C(C)C)NC(=O)CC(C)COC(=O)C(CC(C)C)N(C)C(=O)C(C(C)C)NC(=O)C(C(C)C)OC1=O (stereo not given)
GI50 [1]: 31.3 µM (inactive)
GI50 [2]: > 50 µM (inactive)
GI50 [3]: > 50 µM (inactive)
GI50 [4]: > 50 µM (inactive)
GI50 [5]: > 50 µM (inactive)
GI50 [6]: 48.9 µM (inactive)
GI50 [7]: 15.2 µM (inactive)
GI50 [8]: > 50 µM (inactive)
GI50 [9]: > 50 µM (inactive)
GI50 [10]: > 50 µM (inactive)
GI50 [11]: > 50 µM (inactive)
GI50 [12]: > 50 µM (inactive)
GI50 [13]: > 50 µM
GI50 [14]: 15.2 µM (inactive)
GI50 [56]: 26.5 µM (inactive)
GI50 [15]: > 50 µM (inactive)
GI50 [16]: 26.7 µM (inactive)
GI50 [17]: > 50 µM (inactive)
GI50 [18]: > 50 µM (inactive)
GI50 [19]: > 50 µM (inactive)
GI50 [20]: 23.5 µM (inactive)
GI50 [21]: 38.5 µM (inactive)
GI50 [22]: > 50 µM (inactive)
GI50 [23]: 19.7 µM (inactive)
GI50 [24]: > 50 µM (inactive)
GI50 [25]: > 50 µM (inactive)
GI50 [26]: > 50 µM (inactive)
GI50 [27]: > 50 µM (inactive)
GI50 [28]: 13 µM (inactive)
GI50 [57]: > 50 µM (inactive)
GI50 [29]: > 50 µM (inactive)
GI50 [30]: > 50 µM (inactive)
GI50 [31]: > 50 µM (inactive)
GI50 [32]: > 50 µM (inactive)
GI50 [34]: 37.7 µM (inactive)
GI50 [35]: 34.7 µM (inactive)
GI50 [36]: > 50 µM (inactive)
GI50 [38]: 16.1 µM (inactive)
GI50 [39]: > 50 µM (inactive)
GI50 [40]: 38.4 µM (inactive)
GI50 [58]: 8.28 µM (inactive)
GI50 [41]: > 50 µM (inactive)
GI50 [42]: 18.2 µM (inactive)
GI50 [43]: > 50 µM (inactive)
GI50 [44]: 29.1 µM (inactive)
GI50 [45]: > 50 µM (inactive)
GI50 [46]: 17.1 µM (inactive)
GI50 [47]: 10.9 µM (inactive)
GI50 [48]: > 50 µM (inactive)
GI50 [49]: > 50 µM (inactive)
GI50 [50]: > 50 µM (inactive)
GI50 [52]: 31.2 µM (inactive)
GI50 [53]: > 50 µM (inactive)
GI50 [54]: 16 µM (inactive)
GI50 [55]: > 50 µM (inactive)
